Patent US8722849B2, “Polypeptides” (Novo Nordisk A/S, priority 2011, dated 2014)
≈ marks a conversion by molar mass, not a printed value. Where two headings read alike, the source gives them in different places. Starred links: 1 amine or outer side, 2 acyl side, 3 side chain; linkers in the order of their positions; H or OH if unused. Positions of bridges follow the written chain, without caps; N, C: chain ends. Residues, ends and D or L forms follow the SMILES beside them. *: point of attachment. C20 diacid = O=C(O)CCCCCCCCCCCCCCCCCCC(=O)*; C18 diacid = O=C(O)CCCCCCCCCCCCCCCCC(=O)*; γGlu = O=C(O)[C@H](CCC(=O)[*:2])N[*:1]

Assays:
[1] = target: T1, human amylin receptor (amylin 3(a) receptor: human calcitonin receptor + RAMP-3) (Homo sapiens, UniProt O60896+P30988); experiment: Assay (II)a functional CRE-luciferase assay, human amylin receptor; format: cell-based
T1 construct: expressed in transfected cells; host or cells: BHK570
T1 sequence (P30988 25-474): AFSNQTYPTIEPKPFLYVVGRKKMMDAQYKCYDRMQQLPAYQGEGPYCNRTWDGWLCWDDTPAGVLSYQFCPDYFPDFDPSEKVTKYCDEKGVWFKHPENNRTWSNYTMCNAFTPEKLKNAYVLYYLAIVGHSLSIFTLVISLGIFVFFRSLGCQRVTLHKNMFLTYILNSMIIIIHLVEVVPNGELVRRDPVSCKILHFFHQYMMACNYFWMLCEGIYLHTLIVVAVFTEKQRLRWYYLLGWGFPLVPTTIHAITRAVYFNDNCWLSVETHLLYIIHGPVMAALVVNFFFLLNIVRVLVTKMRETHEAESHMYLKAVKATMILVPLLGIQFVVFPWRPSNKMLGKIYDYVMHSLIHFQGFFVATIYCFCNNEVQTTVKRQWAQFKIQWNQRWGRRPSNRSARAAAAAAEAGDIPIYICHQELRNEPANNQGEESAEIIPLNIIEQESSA
T1 sequence (O60896 24-148 partner): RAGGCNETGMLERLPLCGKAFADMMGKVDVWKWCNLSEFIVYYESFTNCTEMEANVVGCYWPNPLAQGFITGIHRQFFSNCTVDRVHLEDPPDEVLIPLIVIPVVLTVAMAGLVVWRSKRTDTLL

[2] = target: T2, human calcitonin receptor (Homo sapiens, UniProt P30988); experiment: Assay (II)a functional CRE-luciferase assay, human calcitonin receptor; format: cell-based
T2 construct: expressed in transfected cells; host or cells: BHK570
T2 sequence (P30988 25-474): T1 sequence (P30988 25-474)

[3] = Assay (III) ThT fibrillation assay for physical stability; format: physicochemical; conditions: ThT fibrillation assay
In short: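 Freshly prepared formulations, pH-adjusted, with 1 μM ThT; four or eight replicates incubated at 37 °C under 960 rpm orbital shaking. Fluorescence (ex 444/em 485 nm) read every 20 min; […]. Peptide concentration measured by RP-HPLC before and after the run.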

[4] = Assay (IV) determination of solubility; format: physicochemical
In short: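 Polypeptide in water (~500 nmol/ml stock) was mixed 1:1 with 100 mM buffers from pH 3.0 to 8.0 (glycylglycine pH 3.0–5.0; bistrispropane pH 6.0–8.0). After 18 hours at room temperature, samples were centrifuged and the polypeptide remaining in solution was quantified by HPLC.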

[5] = Table 2, BHK amylin 3(a)-receptor/CRE-luc cells
[6] = Table 7, human calcitonin (CTa) receptor
[7] = bistrispropane buffer, pH 6, pH 6.0, read-out: Solubility pH 6.0
[8] = bistrispropane buffer, pH 6.5, pH 6.5, read-out: Solubility pH 6.5
[9] = bistrispropane buffer, pH 7, pH 7.0, read-out: Solubility pH 7.0
[10] = bistrispropane buffer, pH 7.5, pH 7.5, read-out: Solubility pH 7.5
[11] = bistrispropane buffer, pH 8, pH 8.0, read-out: Solubility pH 8.0
[12] = glycylglycine buffer, pH 3, pH 3.0, read-out: Solubility pH 3.0
[13] = glycylglycine buffer, pH 4, pH 4.0, 18 hours at room temperature, Table 2, read-out: Solubility pH 4.0
[14] = glycylglycine buffer, pH 4, pH 4.0, read-out: Solubility pH 4.0
[15] = glycylglycine buffer, pH 5, pH 5.0, read-out: Solubility pH 5.0

Compound	EC50 [1, 5] [nM]	EC50 [2, 6] [nM]	ThT pH 4.0 lag time [3] [h]	ThT pH 4.0 lag time (h) [3] [h]	solubility at 18 h [4, 7] [µM]	solubility at 18 h [4, 8] [µM]	solubility at 18 h [4, 9] [µM]	solubility at 18 h [4, 10] [µM]	solubility at 18 h [4, 11] [µM]	solubility at 18 h [4, 12] [µM]	solubility at 18 h [4, 13] [µM]	solubility at 18 h [4, 14] [µM]	solubility at 18 h [4, 15] [µM]	solubility at 18 h ([4]; pH 8.0, read-out: Solubility pH 8.0) [µM]	EC50 ([1]; Table 11) [nM]	EC50 ([2]; Table 11, read-out: CTa receptor human EC50) [nM]
CC[C@H](C)[C@H](NC(=O)[C@@H]1CCCN1C(=O)CNC(=O)[C@H](Cc1ccccc1)NC(=O)[C@H](CC(N)=O)NC(=O)[C@H](CC(N)=O)NC(=O)[C@H](CO)NC(=O)[C@H](CO)NC(=O)[C@H](Cc1c[nH]cn1)NC(=O)[C@H](Cc1c[nH]cn1)NC(=O)[C@H](CC(C)C)NC(=O)[C@H](Cc1ccccc1)NC(=O)[C@H](CCC(=O)O)NC(=O)[C@H](C)NC(=O)[C@H](CC(C)C)NC(=O)[C@H](CCCNC(=N)N)NC(=O)[C@H](CCC(N)=O)NC(=O)[C@@H](NC(=O)[C@H](C)NC(=O)[C@@H]1CSSC[C@H](NC(=O)[C@H](Cc2c[nH]cn2)NC(=O)[C@H](Cc2c[nH]cn2)NC(=O)[C@H](Cc2c[nH]cn2)NC(=O)CC[C@H](NC(=O)CCCCCCCCCCCCCCCCC(=O)O)C(=O)O)C(=O)N[C@@H](CC(N)=O)C(=O)N[C@@H]([C@@H](C)O)C(=O)N[C@@H](C)C(=O)N[C@@H]([C@@H](C)O)C(=O)N1)[C@@H](C)O)C(=O)N[C@@H](CC(C)C)C(=O)N1CCC[C@H]1C(=O)N1CCC[C@H]1C(=O)N[C@H](C(=O)N[C@@H](CC(N)=O)C(=O)N[C@H](C(=O)NCC(=O)N[C@@H](CO)C(=O)N[C@@H](CC(N)=O)C(=O)N[C@H](C(=O)N[C@@H](Cc1ccc(O)cc1)C(N)=O)[C@@H](C)O)C(C)C)[C@@H](C)O [Example 45, N-alpha-[(S)-4-Carboxy-4-(17-carboxyheptadecanoylamino)butyryl]-His-His-[His1,Glu14,His17]-pramlintide] ({C18 diacid-γGlu}-HHHCNTATCATQRLAEFLHHSSNNFGPILPPTNVGSNTY-NH2; disulfide 4-9 (inferred); C-terminus assumed)	0.0624	0.265	36.7	36.7	188 (≈ 886 µg/mL)	48 (≈ 226 µg/mL)	42 (≈ 198 µg/mL)	134 (≈ 631 µg/mL)	> 200	> 200	> 200	> 200	> 200	–	–	–
CC[C@H](C)[C@H](NC(=O)[C@@H]1CCCN1C(=O)CNC(=O)[C@H](Cc1ccccc1)NC(=O)[C@H](CC(N)=O)NC(=O)[C@H](CO)NC(=O)[C@H](CO)NC(=O)[C@H](CO)NC(=O)[C@H](Cc1c[nH]cn1)NC(=O)[C@@H](NC(=O)[C@H](CC(C)C)NC(=O)[C@H](Cc1ccccc1)NC(=O)[C@H](CCC(=O)O)NC(=O)[C@H](C)NC(=O)[C@H](CC(C)C)NC(=O)[C@H](CCCNC(=N)N)NC(=O)[C@H](CCC(N)=O)NC(=O)[C@@H](NC(=O)[C@H](C)NC(=O)[C@@H]1CSSC[C@H](NC(=O)[C@H](Cc2c[nH]cn2)NC(=O)CC[C@H](NC(=O)CCCCCCCCCCCCCCCCCCC(=O)O)C(=O)O)C(=O)N[C@@H](CC(N)=O)C(=O)N[C@@H]([C@@H](C)O)C(=O)N[C@@H](C)C(=O)N[C@@H]([C@@H](C)O)C(=O)N1)[C@@H](C)O)C(C)C)C(=O)N[C@@H](CC(C)C)C(=O)N[C@@H](CO)C(=O)N[C@@H](CO)C(=O)N[C@H](C(=O)N[C@@H](CC(N)=O)C(=O)N[C@H](C(=O)NCC(=O)N[C@@H](CO)C(=O)N[C@@H](Cc1c[nH]cn1)C(=O)N[C@H](C(=O)N[C@@H](Cc1ccc(O)cc1)C(N)=O)[C@@H](C)O)C(C)C)[C@@H](C)O [Example 110, N-alpha-[(S)-4-Carboxy-4-(19-carboxynonadecanoylamino)butyryl]-[His1,Glu14,Ser21,Ser28,Ser29,His35]-pramlintide] ({C20 diacid-γGlu}-HCNTATCATQRLAEFLVHSSSNFGPILSSTNVGSHTY-NH2; disulfide 2-7 (inferred))	0.921	0.349	–	1.7	1 (≈ 4.4 µg/mL)	1 (≈ 4.4 µg/mL)	1 (≈ 4.4 µg/mL)	1 (≈ 4.4 µg/mL)	–	> 200	> 200	> 200	> 200	1 (≈ 4.4 µg/mL)	–	–
CC[C@H](C)[C@H](NC(=O)[C@@H]1CCCN1C(=O)CNC(=O)[C@H](Cc1ccccc1)NC(=O)[C@H](CC(N)=O)NC(=O)[C@H](CC(N)=O)NC(=O)[C@H](CO)NC(=O)[C@H](CO)NC(=O)[C@H](Cc1c[nH]cn1)NC(=O)[C@@H](NC(=O)[C@H](CC(C)C)NC(=O)[C@H](Cc1ccccc1)NC(=O)[C@H](CC(N)=O)NC(=O)[C@H](C)NC(=O)[C@H](CC(C)C)NC(=O)[C@H](CCCNC(=N)N)NC(=O)[C@H](CCC(N)=O)NC(=O)[C@@H](NC(=O)[C@H](C)NC(=O)[C@@H]1CSSC[C@H](NC(=O)[C@H](CCC(=O)O)NC(=O)[C@H](CCCNC(=N)N)NC(=O)[C@H](CCC(=O)O)NC(=O)[C@H](CCC(=O)O)NC(=O)CCCCCCCCCCCCCCCCCCC(=O)O)C(=O)N[C@@H](CC(N)=O)C(=O)N[C@@H]([C@@H](C)O)C(=O)N[C@@H](C)C(=O)N[C@@H]([C@@H](C)O)C(=O)N1)[C@@H](C)O)C(C)C)C(=O)N[C@@H](CC(C)C)C(=O)N1CCC[C@H]1C(=O)N1CCC[C@H]1C(=O)N[C@H](C(=O)N[C@@H](CC(N)=O)C(=O)N[C@H](C(=O)NCC(=O)N[C@@H](CO)C(=O)N[C@@H](CC(N)=O)C(=O)N[C@H](C(=O)N1CCC[C@H]1C(N)=O)[C@@H](C)O)C(C)C)[C@@H](C)O [Example 121, N-alpha-(19-carboxynonadecanoyl)-Glu-Glu-Arg-[Glu1,Pro37]-pramlintide] ({C20 diacid}-EERECNTATCATQRLANFLVHSSNNFGPILPPTNVGSNTP-NH2; disulfide 5-10 (inferred); C-terminus assumed)	–	–	–	0.3	155 (≈ 717 µg/mL)	127 (≈ 587 µg/mL)	54 (≈ 250 µg/mL)	157 (≈ 726 µg/mL)	117 (≈ 541 µg/mL)	> 200	–	> 200	> 200	–	0.045	0.0615
CC[C@H](C)[C@H](NC(=O)[C@@H]1CCCN1C(=O)CNC(=O)[C@H](Cc1ccccc1)NC(=O)[C@H](CC(N)=O)NC(=O)[C@H](CC(N)=O)NC(=O)[C@H](CO)NC(=O)[C@H](CO)NC(=O)[C@H](Cc1c[nH]cn1)NC(=O)[C@H](Cc1c[nH]cn1)NC(=O)[C@H](CC(C)C)NC(=O)[C@H](Cc1ccccc1)NC(=O)[C@H](CCC(=O)O)NC(=O)[C@H](C)NC(=O)[C@H](CC(C)C)NC(=O)[C@H](CCCNC(=N)N)NC(=O)[C@H](CCC(N)=O)NC(=O)[C@@H](NC(=O)[C@H](C)NC(=O)[C@@H]1CSSC[C@H](NC(=O)[C@H](Cc2c[nH]cn2)NC(=O)[C@H](Cc2c[nH]cn2)NC(=O)[C@H](Cc2c[nH]cn2)NC(=O)CC[C@H](NC(=O)CCCCCCCCCCCCCCCCCCC(=O)O)C(=O)O)C(=O)N[C@@H](Cc2c[nH]cn2)C(=O)N[C@@H]([C@@H](C)O)C(=O)N[C@@H](C)C(=O)N[C@@H]([C@@H](C)O)C(=O)N1)[C@@H](C)O)C(=O)N[C@@H](CC(C)C)C(=O)N1CCC[C@H]1C(=O)N1CCC[C@H]1C(=O)N[C@H](C(=O)N[C@@H](CC(N)=O)C(=O)N[C@H](C(=O)NCC(=O)N[C@@H](CO)C(=O)N[C@@H](CC(N)=O)C(=O)N[C@H](C(=O)N[C@@H](Cc1ccc(O)cc1)C(N)=O)[C@@H](C)O)C(C)C)[C@@H](C)O [Example 35, N-alpha-[(S)-4-Carboxy-4-(19-carboxynonadecanoylamino)butyryl]-His-His-[His1,His3,Glu14,His17]-pramlintide] ({C20 diacid-γGlu}-HHHCHTATCATQRLAEFLHHSSNNFGPILPPTNVGSNTY-NH2; disulfide 4-9)	0.286	0.801	–	1.3	17 (≈ 81 µg/mL)	–	–	9 (≈ 42.9 µg/mL)	66 (≈ 314 µg/mL)	> 200	> 200	> 200	194 (≈ 924 µg/mL)	–	–	–
